Data published in patent US8969554B2, “6-acyl-1,2,4-triazine-3,5-dione derivative and herbicides” (Kumiai Chemical Industry Co., Ltd., priority 2010, dated 2015).

Tests used:
Assay type in all cases: in vivo
foxtail = assay: Herbicidal activity by field soil treatment (Test example 2); conditions: 1000 g effective component per hectare, day 21 after the treatment;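 also: index 0 to 10 in 10% steps of herbicidal effect with 10 meaning complete death and 0 below 10%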
Method in brief: (§1)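 Seeds of the four weeds sown in field soil in pots; wettable powder diluted in water sprayed pre-emergence on soil surface at 1000 L/ha, giving 1000 g active per hectare. Greenhouse grown; herbicidal effect scored on day 21 after treatment by set criteria.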

Indian millet [1] = assay: Herbicidal activity by field foliage treatment (Test example 3); design: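 index 0 to 10 in 10% steps of herbicidal effect with 10 meaning complete death and 0 below 10%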; conditions: 1000 g effective component per hectare, day 14 after the treatment
Method in brief: (§2)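 Field soil in pots; Indian millet and A. retroflexus grown 2 weeks in greenhouse, then sprayed over whole plant with water-diluted wettable powder at 1000 L/ha, giving 1000 g active component/ha. Herbicidal effect scored by set criteria on day 14 after treatment.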

A. retroflexus [2] = assay: as above; design: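 index 0 to 10 in 10% steps of herbicidal effect with 10 meaning complete death and 0 below 10%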; conditions: 1000 g effective component per hectare, day 14 after the treatment
Method in brief: as §2

Monochoria vaginalis = assay: Herbicidal activity by paddy field soil treatment (Test Example 1); design: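 index 0 to 10 in 10% steps of herbicidal effect with 10 meaning complete death and 0 below 10%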; conditions: 1000 g of effective component per hectare, evaluated on day 21 after the treatment, criteria of Table 72
Method in brief: (§3)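 Paddy soil in pots sown with seeds, flooded to 3 cm; next day wettable powder diluted in water applied to water surface at 1000 g active ingredient/ha. Greenhouse-grown; herbicidal effect scored on day 21 after treatment against rating criteria.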

Echinochloa oryzicola = assay: as above; design: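 index 0 to 10 in 10% steps of herbicidal effect with 10 meaning complete death and 0 below 10%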; conditions: 1000 g of effective component per hectare, evaluated on day 21 after the treatment, criteria of Table 72
Method in brief: as §3

Scirpus juncoides Rocxb. = assay: as above; design: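 index 0 to 10 in 10% steps of herbicidal effect with 10 meaning complete death and 0 below 10%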; conditions: applied on water surface, 1000 g of effective component per hectare, day 21 after the treatment
Method in brief: as §3

Indian millet [3] = assay: Herbicidal activity by field soil treatment (Test example 2); design: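 index 0 to 10 in 10% steps of herbicidal effect with 10 meaning complete death and 0 below 10%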; conditions: 1000 g effective component per hectare, day 21 after the treatment
Method in brief: as §1

A. retroflexus [4] = assay: as above; design: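 index 0 to 10 in 10% steps of herbicidal effect with 10 meaning complete death and 0 below 10%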; conditions: 1000 g effective component per hectare, day 21 after the treatment
Method in brief: as §1

Echinochloa crus-galli [5] = assay: as above; design: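 index 0 to 10 in 10% steps of herbicidal effect with 10 meaning complete death and 0 below 10%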; conditions: 1000 g effective component per hectare, day 21 after the treatment
Method in brief: as §1

Setaria viridis = assay: Herbicidal activity by field foliage treatment (Test example 3); conditions: 1000 g effective component per hectare, day 14 after the treatment;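 also: index 0 to 10 in 10% steps of herbicidal effect with 10 meaning complete death and 0 below 10%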
Method in brief: (§4)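 Potted field-soil plants grown 2 weeks in a greenhouse were sprayed over the whole foliage with diluted wettable powder at 1000 L/ha, delivering 1000 g active ingredient per hectare. Herbicidal effect scored by visual criteria 14 days after treatment.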

Echinochloa crus-galli [6] = assay: as above; design: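 index 0 to 10 in 10% steps of herbicidal effect with 10 meaning complete death and 0 below 10%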; conditions: 1000 g effective component per hectare, day 14 after the treatment
Method in brief: as §4

SMILES | herbicidal effect index, Setaria viridis (foxtail) | herbicidal effect index, Abutilon theophrasti (Indian millet [1]) | herbicidal effect index, Amaranthus retroflexus (A. retroflexus [2]) | Herbicidal effects index number, Monochoria vaginalis (Monochoria vaginalis) | Herbicidal effects index number, Echinochloa oryzicola (Echinochloa oryzicola) | herbicidal effect index, S. juncoides Rocxb. (Scirpus juncoides Rocxb.) | herbicidal effect index, Abutilon theophrasti (Indian millet [3]) | herbicidal effect index, Amaranthus retroflexus (A. retroflexus [4]) | herbicidal effect index, Echinochloa crus-galli (Echinochloa crus-galli [5]) | herbicidal effect index, Setaria viridis (Setaria viridis) | herbicidal effect index, Echinochloa crus-galli (Echinochloa crus-galli [6])
Cn1nc(C(=O)C2=C(O)CCCC2=O)c(=O)n(C2CC2)c1=O [I-16] | 9 | 9 | 10 | 9 | 9 | 10 | 9 | 10 | 9 | 9 | 9
COCCCn1c(=O)c(C(=O)C2=C(O)CCCC2=O)nn(C)c1=O [I-41] | 7 | 10 | 10 | 8 | 8 | 10 | 8 | 10 | 9 | 10 | 10
Cn1nc(C(=O)C2=C(O)CCCC2=O)c(=O)n(-c2ccccc2)c1=O [I-50, 6-(2-hydroxy-6-oxocyclohexa-1-enecarbonyl)-2-methyl-4-phenyl-1,2,4-triazine-3,5 (2H, 4H)-dione] | 10 | 10 | 10 | 10 | 10 | 10 | 10 | 10 | 10 | 10 | 10
Cn1nc(C(=O)C2=C(O)CCCC2=O)c(=O)n(-c2ccccc2Cl)c1=O [I-51] | 10 | 10 | 10 | 10 | 10 | 10 | 10 | 10 | 10 | 10 | 10
Cn1nc(C(=O)C2=C(O)CCCC2=O)c(=O)n(-c2cccc(Cl)c2)c1=O [I-52] | 10 | 10 | 10 | 10 | 10 | 10 | 10 | 10 | 10 | 10 | 10
Cn1nc(C(=O)C2=C(O)CCCC2=O)c(=O)n(-c2ccccc2F)c1=O [I-54] | 10 | 10 | 10 | 10 | 10 | 10 | 10 | 10 | 10 | 10 | 10
Cn1nc(C(=O)C2=C(O)CCCC2=O)c(=O)n(-c2cccc(F)c2)c1=O [I-55] | 10 | 10 | 10 | 10 | 10 | 10 | 10 | 10 | 10 | 10 | 10
Cn1nc(C(=O)C2=C(O)CCCC2=O)c(=O)n(-c2ccc(F)cc2)c1=O [I-56] | 10 | 10 | 10 | 10 | 10 | 10 | 10 | 9 | 10 | 10 | 10
Cc1ccccc1-n1c(=O)c(C(=O)C2=C(O)CCCC2=O)nn(C)c1=O [I-57] | 10 | 10 | 10 | 10 | 10 | 10 | 10 | 10 | 10 | 10 | 10
Cc1cccc(-n2c(=O)c(C(=O)C3=C(O)CCCC3=O)nn(C)c2=O)c1 [I-58] | 8 | 10 | 10 | 10 | 10 | 10 | 10 | 10 | 10 | 10 | 10
Cn1nc(C(=O)C2=C(O)CCCC2=O)c(=O)n(-c2ccccc2C(F)(F)F)c1=O [I-63] | 10 | 10 | 10 | 10 | 10 | 10 | 10 | 10 | 10 | 10 | 10
Cn1nc(C(=O)C2=C(O)CCCC2=O)c(=O)n(-c2ccccc2[N+](=O)[O-])c1=O [I-66] | 10 | 10 | 10 | 10 | 10 | 10 | 10 | 10 | 10 | 10 | 10
Cn1nc(C(=O)C2=C(O)CCCC2=O)c(=O)n(-c2cccc([N+](=O)[O-])c2)c1=O [I-67] | 10 | 10 | 10 | 10 | 10 | 10 | 10 | 10 | 10 | 10 | 10
Cn1nc(C(=O)C2=C(O)CCCC2=O)c(=O)n(-c2ccc([N+](=O)[O-])cc2)c1=O [I-68] | 10 | 10 | 10 | 10 | 10 | 10 | 10 | 10 | 10 | 8 | 10
Cn1nc(C(=O)C2=C(O)CCCC2=O)c(=O)n(-c2ccc(OC(F)(F)F)cc2)c1=O [I-71] | 6 | 9 | 10 | 10 | 10 | 10 | 10 | 10 | 10 | 9 | 10
